# Test results as given in US10413532B2, “Pharmaceutical compositions containing a PDE4 inhibitor and a PI3 delta or dual PI3 delta-gamma kinase inhibitor” (Rhizen Pharmaceuticals SA, priority 2012, dated 2019).
# Where two headings read alike, the source gives them in different places.
# Experiments:
# MMP-9 = MMP-9 release from PMA-induced THP-1 cells (gelatin zymography); format: cell-based, human; conditions: compound alone at 300 nM
# Procedure: Gelatinase activity of MMP-9 was determined by zymography. Proteins in supernatant (after incubation of THP-1 cells with 50 ng PMA for 24 h) were separated on gels containing 0.1% gelatin (Sigma, USA). Gels were re-natured by incubation in 2.5% Triton X-100 for 30 min, incubated overnight in substrate buffer (50 mMTris-HCl, pH 7.5) containing 10 mM CaCl2 and 0.05% ZnCl2 at 37° C. and stained with Coomassie brilliant blue (0.5%). […] Molecular weight markers (Fermentas, Lithuania) were run with each gel. Band intensity was calculated using ImageJ 1.42 (NIH, USA).
# pAkt (S473) = assay: phospho-Akt (S473) in differentiated U937 cells stimulated with cigarette smoke extract (SDS-PAGE); format: cell-based; conditions: Homo sapiens, U-937; compound alone; differentiated U937, CSE; read-out: IC50 of inhibition of Akt phosphorylation
# Procedure: U-937 monocytes were differentiated into macrophages by incubation with 50 ng/ml PMA for 48 h. Cells were trypsinized and plated at a density of 100,000 per well and stimulated with CSE for 2 h in starvation media. Lysates were made using RIPA buffer and run by SDS-PAGE, transferred to PVDF membrane and probed with phospho-Akt (S473) antibody (Cell signaling, USA) followed by anti-rabbit IgG (Cell signaling, USA). Band intensity was calculated using ImageJ 1.42 (NIH, USA).
# elastase = assay: fMLP induced elastase release from human neutrophils; format: cell-based; conditions: compound alone at 300 nM
# Procedure: Blood was procured from a local blood bank. Neutrophils were obtained using the dextran sedimentation method. Cells were plated at 100,000 cells per well in a 96-well plate, treated with fMLP (1 μM) and N-Succinyl-Ala-Ala-Ala-p-nitroanalide (1 μM) (Sigma) and incubated for 2 h. Intensity of digested substrate after incubation was determined by measuring the absorbance at 405 nm on a Fluostar Omega (BMG Labtech, NC, USA).
# TNFα [1] = assay: LPS induced TNFα in PBMC; format: cell-based; conditions: 1000 nM alone, LPS 1 μg/ml, 24 h
# Procedure: PBMC (peripheral blood mononuclear cells) from whole blood were isolated by density gradient using Histopaque and incubated with the desired concentration of inhibitor for 15 minutes. LPS (1 μg/ml) was added and then incubated for 24 hours. The supernatant was collected and TNFα estimated using an eBioscience TNFα ELISA kit.
# PBMC from whole blood were isolated by density gradient using Histopaque and incubated with the desired concentration of inhibitor for 15 minutes. LPS (1 μg/m1) was added and then incubated for 24 hours. The supernatant was collected and TNFα estimated using an eBioscience TNFα ELISA kit.
# neutrophil infiltration = assay: Lipopolysaccharide induced pulmonary neutrophilia in female Wistar rats; format: in vivo
# Procedure: After the quarantine period, fasted animals were randomized and divided into groups depending on their body weights. Test compound was prepared as a suspension in a vehicle consisting of 0.5% methylcellulose in which Tween 80 was used as a suspending agent. Compounds or vehicle were administered by oral gavage in a volume of 10 mL/kg. Animals were anaesthetized with ketamine and LPS solution was administered intratracheally 30 minutes after compound administration at a dose of 1 mg/kg. Six hours after LPS instillation, animals were exsanguinated under anaesthesia, and the trachea was cannulated, and lungs were lavaged with 5-ml aliquots of heparinised PBS (1 unit/ml) four times through the tracheal cannula (total volume 20 ml). Bronchioalveolar (BAL) fluid was stored at 2-8° C. until assayed for total cell and differential leukocyte count. BAL fluid was centrifuged (500×g for 10 min) and the resulting cell pellet was resuspended in 0.5 ml of heparinised saline. The total numbers of white blood cells were determined in BAL fluid or blood using a cell counter and were adjusted to 1×10^6 cell/ml. Differential cell count was calculated manually. One hundred microliters of the cell suspension was centrifuged using cytospin 3 to prepare a cell smear. The cell smear was stained with a blood staining solution for differentiation and slides were microscopically observed to identify eosinophils according to their morphological characteristics. The number of each cell type among 300 white blood cells in the cell smear was determined and expressed as a percentage of total cells. The number of eosinophil in BALF was calculated.
# The procedure for LPS induced pulmonary neutrophilia in female Wistar rats as described in Example 1 was performed with compound A1 and roflumilast.
# [2] = system: macrophage and neutrophil infiltration; assay: Acute cigarette smoke induced cell infiltration in male Balb/c mice; format: in vivo; conditions: acute CS, mouse; for ED50: oral
# Procedure: Animals were acclimatized for seven days prior to the start of the experiment. Animals were randomly distributed to various groups based on their body weights. On day 1, mice were administered by test compound or vehicle by the oral route and after 30 mins test compound administration animals were placed in a whole body exposure box. The mice were exposed to the mainstream smoke of 6 cigarettes from day 1 to day 4. Exposure to the smoke of each cigarette lasted for 10 min (cigarettes were completely burned in the first two minutes and followed by an air flow with animal ventilator) followed by exposure for the next 20 min with fresh room air. After every second cigarette an additional break of 20 min with exposure to fresh room air was conducted. Control animals were exposed to the room air chamber. From day 1 to day 4 animals were administered test compound by the oral route. On day 5, 24 hours after the last cigarette smoke (CS) exposure. animals were exsanguinated under anaesthesia, and the trachea was cannulated and the lungs were lavaged with 0.5 ml aliquots of heparinised PBS (1 unit/ml) four times through a tracheal cannula (total volume 2 ml). Bronchioalveolar (BAL) collected was stored at 2-8° C. until assayed for total cell and differential leukocyte count. BAL fluid was centrifuged (500×g for 10 min) and the resulting cell pellet was resuspended in 0.5 ml of heparinised saline. The total number of white blood cells was determined in BAL fluid and blood using a blood cell counter and adjusted to 1×10^6 cell/ml. Differential cell count was calculated manually. Forty microliters of the cell suspension was centrifuged using cytospin 3 to prepare a cell smear. The cell smear was stained with a blood staining solution for differentiation and microscopically observed by identifying each cell according to its morphological characteristics. The number of each cell type among 300 white blood cells in the cell smear were determined and expressed as a percentage, and the number of neutrophils and macrophages in each BAL fluid were calculated.
# The procedure for acute cigarette smoke induced cell infiltration in male Balb/c mice described in Example 1 was performed with Compound A1 and roflumilast
# [3] = system: macrophage and neutrophil infiltration; assay: Chronic cigarette smoke induced cell infiltration in male Balb/c mice; format: in vivo; conditions: alone at 1 mg/kg oral; chronic CS, mouse
# Procedure: Animals were acclimatized for seven days prior to the start of the experiment. Animals were randomly distributed to various groups based on their body weights. Mice were exposed to the mainstream smoke of 4 cigarettes from day 1 to day 11. Exposure to the smoke of each cigarette lasted for […] (each cigarette was completely burned in the first two minutes, followed by an air flow with animal ventilator) and were exposed for the next 20 min with fresh room air. After every second cigarette an additional break of 20 min with exposure to fresh room air was conducted. Control animals were exposed to the room air chamber. Test compound was administered by the oral route from day 6 to day 11 before 30 mins whole body smoke exposure. On day 12, 24 hours after the last cigarette smoke (CS) exposure animals were exsanguinated under anaesthesia, and the trachea was cannulated and the lungs were lavaged with 0.5 ml aliquots of heparinised PBS (1 unit/nil) four times through tracheal cannula (total volume 2 ml). Bronchioalveolar (BAL) collected was stored at 2-8° C. until assayed for total cell and differential leukocyte count. BAL fluid was centrifuged (500×g for 10 min) and the resulting cell pellet was resuspended in 0.5 ml of heparinised saline. The total number of white blood cells was determined in BAL fluid and blood using a blood cell counter and adjusted to 1×10^6 cell/ml. Differential cell count was calculated manually Forty microliters of the cell suspension was centrifuged using cytospin 3 to prepare a cell smear. The cell smear was stained with a blood staining solution for differentiation and microscopically observed by identifying each cell according to its morphological characteristics. The number of each cell type among 300 white blood cells in the cell smear was determined and expressed as a percentage, and the number of neutrophils and macrophages in each BAL fluid were calculated.
# TNFα [4] = assay: LPS induced TNFα in MH-S (mouse alveolar macrophage) cells; format: cell-based; conditions: 130 nM alone
# Procedure: MH-S represents a mouse alveolar macrophage cell line that secretes copious amounts of TNFα upon induction by LPS. Cells were plated at 150,000 cells per well. 10 nM of Compound A1 (final concentration) was added 15 minutes prior to the addition of roflumilast. LPS (1 μg/ml) was added and then incubated for 4 hours. The supernatant was collected after 20 hours and TNFα was estimated using an ELISA kit.
# [5] = 3 mg/kg oral, dose-response study
# [6] = combination study, alone at 3 mg/kg
smiles,measurement,setting,value
"Cc1ccccc1-n1c(Cn2cnc3c(N)ncnc32)nc2cccc(C)c2c1=O [Compound B, 2-((6-amino-9H-purin-9-yl)methyl)-5-methyl-3-o-tolylquinazolin-4(3H)-one]",effect on MMP-9 release,MMP-9,no effect
same,IC50,pAkt (S473),780 nM
same,reduction of elastase release,elastase,10%
"C[C@H](Nc1ncnc2[nH]cnc12)c1oc2ccc(F)cc2c(=O)c1-c1cccc(F)c1 [Compound C, (S)-2-(1-(9H-purin-6-ylamino)ethyl)-6-fluoro-3-(3-fluorophenyl)-4H-chromen-4-one]",decrease of TNFα secretion,TNFα [1],20%
same,percent inhibition of neutrophil infiltration,"neutrophil infiltration; 0.1 mg/kg oral, rat BAL fluid 6 h after LPS",14.15%
same,percent inhibition of neutrophil infiltration,"neutrophil infiltration; 1 mg/kg oral, dose-response study, rat",57.76%
same,percent inhibition of neutrophil infiltration,"neutrophil infiltration; 3 mg/kg oral, rat",56.93%
same,percent inhibition of neutrophil infiltration,"neutrophil infiltration; 10 mg/kg oral, rat",81.55%
same,ED50,"neutrophil infiltration; Neutrophil, oral, rat LPS pulmonary neutrophilia, read-out: 50% inhibition (ED50) dose, neutrophil infiltration",1 mg/kg
same,inhibition of neutrophil infiltration,"neutrophil infiltration; combination study, alone at 1 mg/kg, rat",36.56%
same,percent inhibition of macrophage infiltration,[2]; 1 mg/kg oral,34.84%
same,percent inhibition of neutrophil infiltration,[2]; 1 mg/kg oral,29.06%
same,percent inhibition of macrophage infiltration,[2]; [5],42.09%
same,percent inhibition of neutrophil infiltration,[2]; [5],62.38%
same,percent inhibition of macrophage infiltration,[2]; 10 mg/kg oral,61.77%
same,percent inhibition of neutrophil infiltration,[2]; 10 mg/kg oral,74.25%
same,ED50,"[2]; Macrophage, read-out: 50% inhibition (ED50) dose, macrophage infiltration",4.4 mg/kg
same,ED50,"[2]; Neutrophil, read-out: dose of 50% inhibition (ED50) of neutrophil infiltration",2.1 mg/kg
same,inhibition of macrophage infiltration,[2]; [6],30.01%
same,inhibition of neutrophil infiltration,[2]; [6],41.47%
same,inhibition of macrophage infiltration,[3],−13.30%
same,inhibition of neutrophil infiltration,[3],4.08%
"CCOc1cc([C@@H](CS(C)(=O)=O)N2C(=O)c3cccc(NC(C)=O)c3C2=O)ccc1OC [aprelimilast, reference compound]",decrease in TNFα secretion,TNFα [4],~10%
